Test results: US10617654B2, “Use of fenoterol and fenoterol analogues in the treatment of glioblastomas and astrocytomas” (priority 2010, dated 2020)
Values joined by “and” are separate entries in the source; they are usually repeats but may differ in a detail not shown here. Identical values can stand only once. Like-named read-outs stand apart in the source and are kept apart here.

Assays:
[1] = molecular target: T1, β2-AR (Homo sapiens (Human), UniProt P07550); assay type: cell-based; settings: 1321N1 cells, basal below 0.5 nmol/mg protein
T1 sequence (P07550 whole entry): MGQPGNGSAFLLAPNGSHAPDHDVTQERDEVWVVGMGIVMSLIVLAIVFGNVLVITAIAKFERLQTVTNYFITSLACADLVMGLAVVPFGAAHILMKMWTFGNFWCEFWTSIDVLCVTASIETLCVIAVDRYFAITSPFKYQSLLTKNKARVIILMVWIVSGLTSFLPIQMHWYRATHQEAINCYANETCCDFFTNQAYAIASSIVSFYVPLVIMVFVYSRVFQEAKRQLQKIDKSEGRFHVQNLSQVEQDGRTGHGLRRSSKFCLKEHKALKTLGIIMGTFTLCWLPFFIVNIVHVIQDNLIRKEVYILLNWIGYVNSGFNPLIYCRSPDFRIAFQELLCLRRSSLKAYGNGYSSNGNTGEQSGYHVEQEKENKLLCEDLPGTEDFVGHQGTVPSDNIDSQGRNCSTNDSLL
Procedure: HEK-β2-AR, 1321N1 or U87MG cells were plated in 96-well plates. When the cells reached confluence, the medium was removed and each well rinsed with 0.1 mL of Krebs-HEPES buffer (130 mM NaCl, 4.8 mM KCl, 1.2 mM KH2PO4, 1.3 mM CaCl2, 1.2 mM MgSO4, 25 mM HEPES, and 10 mM glucose, pH 7.3). The plates were preincubated for 10 minutes at room temperature with buffer alone; then test compound diluted in buffer was added to the wells for quadruplicate determinations. The plates were incubated for an additional 10 minutes with the test compound. After incubation, the medium was removed and 0.1 mL of 0.5 M formic acid was added. After a minimum of 1 hour, the supernatant was removed and lyophilized. cAMP was quantitated using the protein kinase binding assay of Gilman. The amount of protein per well was determined using the BCA protein determination kit (Thermo Scientific Pierce, Rockford, Ill.) and was used to calculate the amount of cAMP/mg/well.

[2] = for Individual plasma concentration: individual rat; for Individual plasma concentration / systemic exposure (AUC) compared to (R,R)-fenoterol / Plasma concentration, Average: 5 mg/kg IV
Procedure: Dose calculations (mg/kg) were based on the individual body weight measured on the day of treatment. Study duration for pharmacokinetic studies was 6 hours. […] Urine was collected for 0-6 hours and 6 to 24 hours from 3 rats in each treatment group.
In the two-compartment model, the drug distributes into two compartments, the central compartment and the tissue, or peripheral compartment. The central compartment represents the blood, extracellular fluid, and highly perfused tissues. The drug distributes rapidly and uniformly in the central compartment. A second compartment, known as the tissue or peripheral compartment, contains tissues in which the drug equilibrates more slowly. Drug transfer between the two compartments is assumed to take place by first-order processes.
The following abbreviations are utilized in Table 4 below: alpha—macro rate constant associated with the distribution phase; beta—macro rate constant associated with the elimination phase; A, B—zero time intercept associated with the alpha phase and beta phase, respectively; AUC—area under the curve; T1/2 (K10)—half-life associated with the rate constant K10; K10—elimination rate—rate at which the drug leaves the system from the central compartment; K12—rate at which drug enters tissue compartment from the central compartment; K21—rate at which drug enters central compartment from tissue compartment; V1—volume of distribution of the central compartment; V2—volume of distribution of the tissue compartment; Vss—volume of distribution at steady state; and Cl—clearance.

[3] = Brain and plasma analysis of [3H]-(R,R)-methoxyfenoterol after IV administration; assay type: in vivo, male Sprague-Dawley rats; settings: rats, IV
Procedure: An overview of the research study design for evaluating the brain-to-plasma distribution of [^3H]
(specific activity 57 Ci/mmol); vehicle was sterile saline, 0.9% sodium chloride, USP. Dose formulations were prepared on the day of the study. The amount of radioactivity in the dose formulation was determined by liquid scintillation. The study lasted for an hour and radioactivity levels in plasma and brain tissue were evaluated at the conclusion of the study. Approximately 5 mls of whole blood was collected. Blood samples were collected via cardiac puncture, transferred into a tube containing K3EDTA as the anticoagulant and kept on wet ice until processed to plasma. To generate plasma, samples were centrifuged within 15 minutes of collection at 2,500 RPM for 15 minutes at room temperature. Plasma was divided equally into three labeled cryovials and stored on ample dry ice until transferred to a freezer set at ≤−20° C. for storage until analysis. Duplicate aliquots were weighed and then combined with scintillation cocktail. The [^3H] radioactivity was determined on a liquid scintillation counter. Brain samples were snap frozen in liquid nitrogen and stored at ≤−70° C. until analysis. Whole brain tissue was homogenized and the weight of the homogenate was determined. Duplicate aliquots from the homogenate were weighed, solubilized and then combined with scintillation cocktail. The [^3H] radioactivity was determined on a liquid scintillation counter.

[4] = system: 1321N1 xenograft; test: 1321N1 xenograft implanted in the flank of SKID mice; assay type: in vivo; settings: IP twice a day; day 3-10 30 mg/kg/day, day 10-42 50 mg/kg/day
[5] = system: 1321N1 cells; test: Inhibition of mitogenesis, [3H]-thymidine incorporation in 1321N1 cells; assay type: cell-based, human
[6] = system: rat cardiomyocyte; test: Rat cardiomyocyte contractility model; assay type: cell-based
[7] = molecular target: T1, β2-AR; settings: previously reported; cited from earlier work
[8] = rats, 5 mg/kg intravenous, two-compartment open model

Structure (SMILES) | systemic exposure (AUC) compared to (R,R)-fenoterol ([2]; rats) | Plasma concentration, Average ([2]; rats, 15 min) [ng/mL] | Plasma concentration, Average ([2]; rats, 30 min) [ng/mL] | Plasma concentration, Average ([2]; rats, 60 min) [ng/mL] | Plasma concentration, Average ([2]; rats, 120 min) [ng/mL] | Plasma concentration, Average ([2]; rats, 240 min) [ng/mL] | Plasma concentration, Average ([2]; rats, 300 min) [ng/mL] | Plasma concentration, Average ([2]; rats, 360 min) [ng/mL] | A (zero time intercept, alpha phase) [2, 8] [µg/mL] | AUC [2, 8] [µg·min/mL] | B (zero time intercept, beta phase) [2, 8] [µg/mL] | further results
C=C[C@@]1(C)CC(=O)[C@]2(O)[C@@]3(C)[C@@H](O)CCC(C)(C)[C@@H]3[C@H](O)[C@H](OC(C)=O)[C@@]2(C)O1 [forskolin] |  |  |  |  |  |  |  |  |  |  |  | intracellular concentration of cAMP after treatment [1]: ~4 nmol/mg protein
C[C@@H](Cc1cccc2ccccc12)NC[C@H](O)c1cc(O)cc(O)c1.O=C(O)/C=C/C(=O)O [(R,S)-5, (R,S)-(−)-5-{1-hydroxy-2-[1-methyl-2-(1-naphthyl)ethylamino]ethyl}-1,3-benzenediol fumarate] | significantly higher | 680 | 430 | 340 | 240 | 120 | 110 | 90 | 4.0365 | 116.88 | 0.4372 | Individual plasma concentration ([2]; 5 min, listed as (R,S)-naphthylfenoterol, fumarate): 2.52 µg/mL and 2.10 µg/mL; Individual plasma concentration ([2]; 240 min, listed as (R,S)-naphthylfenoterol, fumarate): 0.11 ug/ml (3×) and 0.13 ug/ml (2×); Individual plasma concentration ([2]; 300 min, listed as (R,S)-naphthylfenoterol, fumarate): 0.10 ug/ml (2×) and 0.11 ug/ml (2×) and 0.12 ug/ml; Plasma concentration, Average ([2]; rats, 5 min): 2110 ng/mL; Cl [2, 8]: 12.66 mL/min; T1/2 (K10) [2, 8]: 18.11 min; Vss [2, 8]: 2203.75 mL
COc1ccc(C[C@@H](C)NC[C@H](O)c2cc(O)cc(O)c2)cc1.O=C(O)/C=C/C(=O)O [(R,R)-2, (R,R)-(−)-1-p-Methoxyphenyl-2-(β-3′,5′-dihydroxy-phenyl-β-oxy)ethylamino-propane Fumarate] | significantly higher | 580 | 410 | 260 | 170 | 120 | 70 | 60 | 4.6437 | 96.1011 | 0.3900 | Individual plasma concentration ([2]; 300 min, listed as (R,R)-methoxyfenoterol): 0.06 ug/ml and 0.07 ug/ml (3×) and 0.09 ug/ml; passage through the blood brain barrier [3]: capable of passing through the blood brain barrier; growth of 1321N1 xenograft [4]: inhibit growth
COc1ccc(C[C@@H](NC[C@H](O)c2cc(O)cc(O)c2)C(C)C)cc1 [(R,R)-4-methoxy-isopropylfenoterol] |  |  |  |  |  |  |  |  |  |  |  | IC50 ([5]; [3H]-thymidine incorporation, 1321N1 cells, mean ± SD, n = 4, read-out: Mitogenesis Inhibition IC50): 946 nM; EC50 [6]: > 10000 nM
NCC(O)c1ccc(O)c2[nH]c(=O)ccc12 (centres unmarked) [Compound 51] |  |  |  |  |  |  |  |  |  |  |  | Ki [7]: 6300 nM; Ki β1/Ki β2 [7]: 1.3
CC[C@@H](Cc1ccc(O)cc1)NC[C@H](O)c1cc(O)cc(O)c1 [(R,S)-ethylfenoterol, (R,S)-(−)-ethylfenoterol] |  |  |  |  |  |  |  |  |  |  |  | IC50 ([5]; Homo sapiens, 1321-N1, read-out: Mitogenesis Inhibition IC50): 17.9 ± 4.56 nM
